Reference: EP1272183B1, “METHODS AND COMPOSITIONS USEFUL IN ENHANCING OXYGEN DELIVERY TO CELLS” (Niadyne Corporation, priority 2000, dated 2001)

How the values were obtained:
skin of human volunteers = experiment: Visual observation of vasodilation (blushing) after topical application of niacin ester lotions to the forearm; assay type: in vivo; settings: for Vasodilation at 0.1% / Vasodilation Effect at 0.1% Duration / Vasodilation Effect at 0.1% Onset: 0.1% in skin lotion; for Vasodilation at 0.1% / Vasodilation at 1.0%: anterior surface of forearm, visual observation of blushing; for Vasodilation at 1.0%: 1.0% in skin lotion; for Vasodilation Effect at 0.1% Duration / Vasodilation Effect at 0.1% Onset: visual determination
Description: This example details the first of two sets of experiments designed to determine the vasodilation effect of alkyl niacin esters. Formulations were prepared by combining the alkyl esters referred to supra in a skin lotion, at 0.1% and 1.0% concentrations. The lotions were applied topically to the skin of human volunteers on the anterior surface of a forearm. Vasodilation was observed visually, i.e., by observing blushing at the site of application, or lack thereof. Both onset and duration of vasodilation were measured.
Table 1: Properties of Niacin Esters

[1] = Determination of log P (Poct/w) values in accordance with Harnisch, et al.; assay type: physicochemical; settings: experimentally determined, following Harnisch
Description: The Poct/w values for these compounds were determined in accordance with Harnisch, et al., J. Chromatog.

skin = experiment: Skin oxygen and CO2 content measured with a transcutaneous monitor after topical application; assay type: in vivo, human
Description: To examine this issue, the oxygen content of skin to which the octyl ester discussed supra was determined directly, using a transcutaneous oxygen monitor. The 1% formulation of the octyl ester was applied to skin for 30 minutes. After this thirty minute period, the skin was cleaned with soap and water, wiped with an alcohol swab, and a drop of deionized water was placed on the sensor surface before its attachment to the anterior surface of the volunteers' forearms. The transcutaneous values were recorded constantly, and stored by the instrument. The monitor measures relative oxygen content, because the temperature at which the monitor operates does impact the oxygen permeability of the stratum corneum. See, e.g., Martin, Resp. […] The sensor was calibrated at 4 hour intervals, or whenever the sensor temperature was changed.
The monitor was operated at a temperature of 40°C. Values are given for both a control, and the formulation described herein.
In a follow-up experiment, the monitor was op erated at 38°C, and both O2 and CO2 were measured, with a combined transcutaneous oxygen and CO2 monitor. […] The control is represented by the dotted line.
Parallel experiments were carried out using 0.1% octyl niacin ester lotion, and a lotion containing octyl niacin ester (0.1 %), and 0.1 % butyl benzoate.
Oxygen content was measured in the same way as is described, supra, or using other techniques known to the art.

[2] = monitor at 38°C, versus control, Figure 3

SMILES	Vasodilation at 0.1% (skin of human volunteers)	Vasodilation at 1.0% (skin of human volunteers)	logP [1]	further results
CCCCCCCCCCCCCCOC(=O)c1cccnc1 [14 carbons]	No	No	–	logP ([1]; octanol/water): 7.6
CCCCCCCCCCCCCOC(=O)c1cccnc1 [13 carbons]	No	No	7.5	–
CCCCCCCCCCOC(=O)c1cccnc1 [10 carbons]	No	Yes	5.8	Vasodilation at 1.0% (skin of human volunteers; listed as C10): caused vasodilation
CCCCOC(=O)c1ccccc1 [Butyl benzoate, reference compound]	–	–	–	effect on the increase in oxygen content caused by octyl niacin ester (skin; lotion containing octyl niacin ester (0.1 %) and 0.1 % butyl benzoate versus 0.1% octyl niacin ester lotion, Figure 4): blocked the increase in oxygen content; chromatographic logP ([1]; octanol/water): 3.5
CCOC(=O)c1cccnc1 [2 carbons, Ethyl niacin]	Yes	Yes	–	Vasodilation Effect at 0.1% Duration (skin of human volunteers): 30 to 45 min; Vasodilation Effect at 0.1% Onset (skin of human volunteers): 5 to 10 min
CCCCCCCCCCCCCCCOC(=O)c1cccnc1 [15 carbons]	No	No	8.3	–
CCCCCCCCCCCCOC(=O)c1cccnc1 [12 carbons]	No	No	–	logP ([1]; octanol/water): 6.6
CCCCCCCCOC(=O)c1cccnc1 [8 carbons, Octyl niacin]	Yes	Yes	–	Vasodilation Effect at 0.1% Duration (skin of human volunteers): 240 to 360 min; Vasodilation Effect at 0.1% Onset (skin of human volunteers): 10 to 20 min; Vasodilation Effect at 0.1% Duration (skin of human volunteers; listed as C8): longest effect; skin oxygen (transcutaneous oxygen monitor) (skin; 1% formulation applied to skin for 30 minutes, monitor at 40°C, versus control, Figure 2): sustained increase in skin oxygen; CO2 content (combined transcutaneous oxygen and CO2 monitor) (skin; [2]): decrease in CO2 content; skin oxygen content (combined transcutaneous oxygen and CO2 monitor) (skin; [2]): sustained increase in skin oxygen content
CCCCCCCCCOC(=O)c1cccnc1 [9 carbons]	No	Yes	–	Vasodilation at 1.0% (skin of human volunteers; listed as C9): caused vasodilation
COC(=O)c1cccnc1 [1 carbon]	Yes	Yes	–	–
CCCCOC(=O)c1cccnc1 [4 carbons]	Yes	Yes	2.4	–
CCCCCCOC(=O)c1cccnc1 [6 carbons, Hexyl niacin]	Yes	Yes	3.5	Vasodilation Effect at 0.1% Duration (skin of human volunteers): 60 to 90 min; Vasodilation Effect at 0.1% Onset (skin of human volunteers): 10 to 15 min
CCCCCCCCCCCCCCCCCCOC(=O)c1cccnc1 [18 carbons]	No	No	9.7	–
CCCCCCCCCCCOC(=O)c1cccnc1 [11 carbons]	No	Slight	–	–
CCCCCCCCCCCCCCCCOC(=O)c1cccnc1 [16 carbons]	No	No	9.2	–
